# From patent publication US8980832B2, “Use of fumaric acid derivatives for treating cardiac insufficiency, and asthma” (Biogen Idec International GmbH, priority 2003, dated 2015)
# Where a name gives a salt, the structure may show the parent alone.
# Assays:
# [1] = system: BSM (bronchial smooth muscle) cells; experiment: inhibition of the PDGF-induced incorporation of 3H-thymidine in BSM cells (Example B); type: cell-based; conditions: 10^-5 M dimethyl fumarate; 0, 1, 5, 10 and 20 ng/ml PDGF; 24 h 3H-thymidine
# Description: BSM (bronchial smooth muscle) cells were cultivated in RPMI, 0.3% albumin and 0.1% DMSO at 37° C. in the presence of 0, 1, 5, 10 and 20 ng/ml on PDGF with and without 10^−5 M dimethyl fumarate.
# After a predetermined period of time, 5 μCi on ^3H-thymidine was added to the culture medium and incubation was continued for further 24 hours. The incorporation was finally stopped by means of centrifugation, removal of the supernatant, washing and lysis of the cells. The incorporation on ^3H-thymidine was measured by determining the radioactivity in the lysates in a liquid scintillation device in comparison to the control. The results are shown in FIG. 2 as percentage values as compared with the control (100%).
# [2] = system: rat model of acute ischemia and reperfusion; experiment: acute ischemia and reperfusion model of the rat, size of the infarction; type: in vivo; conditions: 10 mg dimethyl fumarate in 0.02% DMSO iv at beginning of first occlusion; 45 min ischemia, 120 min reperfusion; vs control
# Description: The effects of dimethyl fumarate were examined in the present experiment using the model of acute ischemia and reperfusion of the rat. For this purpose, healthy, male rats were divided into three groups with 17 animals each. In the tests, an ischemia was caused for 45 minutes through an occlusion of an artery with the heart being exposed and, subsequently, reperfusion was carried out for 120 minutes. Finally, a myocardial infarction was triggered by means of a reocclusion and the risk area was determined by means of dyeing with phthalocyanine blue. The administration of the test substance was carried out iv at the beginning of the first occlusion. The control group received 0.02% DMSO (0.5 ml/kg body weight), the DMF group received 10 mg dimethyl fumarate in 0.02% DMSO (0.5 ml/kg body weight). The animals were ischemically preconditioned in the second group (2 times 5 minutes each ischemia and reperfusion). The results are represented in FIG. 1.
# Dahl-rats = experiment: left ventricular enddiastolic diameter in Dahl rats on high salt diet, echocardiography; type: in vivo, rat; conditions: 2x5 and 2x15 mg DMF/kg/d, 8 weeks of high salt diet
# Description: Dahl-rats, which are salt sensitive, were administered varying dosages of DMF on a daily basis and put on a high salt diet. After 8 weeks of treatment the left ventricular enddiastolic diameters were measured for test and control groups by echocardiographic analysis. Groups measured were control (0 mg DMF; n=9); group 1 (2×5 mg DMF/kg/d; n=9) and group 2 (2×15 mg DMF/kg/d; n=11). […] Specifically, in the DMF groups the inner diameter of the left ventricle remained in the same range as at baseline (see FIG. 4). […] Importantly, dilatation of the left ventricle marks the transition from compensated hypertrophy to decompensated heart failure. Consequently, DMF delays the transition to heart failure, and thus prevents myocardial infarctions.
# [3] = system: Bronchial smooth muscle cells; experiment: PDGF-stimulated proliferation of bronchial smooth muscle cells, 3H-thymidine (Example C); type: cell-based; conditions: 10 ng/ml PDGF; 10^-5 M DMF; 36 h treatment + 8 h 3H-thymidine
# Description: Bronchial smooth muscle cells were grown in 96 well plates until they reached 60-70% confluency. The cells were then starved for 48 h in serum free, 0.3% albumine containing RPMI medium. […] As a control untreated cells (buffer only) were used. Cells were treated for 36 h, whereafter 4 μCi of ^3H-thymidine was added for further 8 hours. The cells were lysed, DNA-incorporated ^3H-thymidine bound to filter membranes, and the incorporated cpm measured in a liquid scintillation device.
structure (smiles),measurement,setting,value
"COC(=O)/C=C/C(=O)OC [DMF, dimethyl fumarate]",PDGF-induced 3H-thymidine incorporation,[1],this increase is significantly reduced
same,size of the infarction,[2],limited the size of the infarction to a statistically significant degree
same,dilatation of the left ventricle (left ventricular enddiastolic diameter),Dahl-rats,prevented the dilatation of the left ventricle after 8 weeks of high salt diet in dose dependent manner
same,"cell proliferation, percentage of control (100%)",[3],116±4%
